Reference: PMC3492430, “In Vitro and In Vivo Activity of an Organic Tellurium Compound on Leishmania (Leishmania) chagasi” (PLoS ONE, 2012)

Biological target: T1, cathepsin B (cathepsin B-like cysteine protease) (Leishmania chagasi, UniProt Q9GQN7)
T1 construct: native enzyme in amastigote lysate
Experiment: spectrofluorometric protease assay in amastigote lysate with cathepsin B-specific substrate Abz-Gly-Ile-Val-Arg-Ala-Lys(Dnp)-OH
Format: biochemical

T1 sequence (Q9GQN7 entry or part of it): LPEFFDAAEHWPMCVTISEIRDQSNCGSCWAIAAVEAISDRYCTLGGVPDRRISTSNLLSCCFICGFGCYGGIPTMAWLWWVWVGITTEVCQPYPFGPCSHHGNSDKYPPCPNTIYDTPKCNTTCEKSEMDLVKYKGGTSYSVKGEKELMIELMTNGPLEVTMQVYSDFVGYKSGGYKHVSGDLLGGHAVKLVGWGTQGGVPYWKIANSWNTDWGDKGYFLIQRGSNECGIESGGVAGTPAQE

With `COc1ccc([Te]2(Cl)OC3(CCCCC3)/C2=C\Cl)cc1` (centres unmarked) [RF07, 4-{2-Chloro-3-[chloromethylidene]-1-oxa-2-λ^4-telluraspiro[3.5]non-2-yl}phenyl Methyl Ether] the IC50 was 4.47 ± 0.13 µM.
For `CCCNC(=O)[C@H]1O[C@@H]1C(=O)N[C@H](C(=O)N1CCC[C@H]1C(=O)O)[C@@H](C)CC` [CA074], the IC50 was 2.41 ± 0.15 µM.
